Test results from patent publication US6368788B1 (priority 1987, dated 2002).
Like-named read-outs stand apart in the source and are kept apart here. Marks after values point to notes of the source that are not given here.

Columns and labels:
Wound healing = experiment: Wound healing; parameters: species or system human; settings: in vivo
Protocol: L-Glu-L-Trp was administered to 37 patients with wounds of various origins, types and localizations. Patients in the control group (24) received conventional treatments. L-Glu-L-Trp was administered daily im (or topically) on each of 10 consecutive days. The im dose was 100 μg.

[1] = Ophthalmic diseases, parabulbar or conjunctival instillation; type: in vivo, human
Protocol: Forty one patients (41; 17 men and 24 women; ranging in age from 17 to 68 years) with various eye diseases of infectious and non-infectious origin were treated with L-Glu-L-Trp. Patients having the following infectious, and non-infectious, ophthalmic diseases were entered into the trial: a) nonviral conjunctivitis, keratitis, chronic uveitis, persistent sties, and, focal chorioretinitis; and, b) retinal pigment dystrophy, Grenblad-Stranberg syndrome, and maculophathy, respectively. Five patients were Class II invalids due to vision impairment, 4 were Class III, and 32 were impaired but not invalid. […] L-Glu-L-Trp was administered daily in a single 0.1 mL (10 μg) dose by the parabulbar route (Group 1; n=21), or alternatively one drop of the dipeptide solution (5 μg) was delivered into the conjunctival cavity twice daily on each of 5 consecutive days (Group 2; n=20). Thirty six patients undergoing conventional therapy served as a control group (Group 3; n=36).
Clinical diagnoses of patients entered into Group 1 were as follows: 4 subjects had diagnosed adenoviral conjunctivitis; 2 subjects, recurring eyelid sties; 3 subjects, chronic serous-plastic uveitis; 3 subjects, central chorioretinitis; 5 subjects, central retinal dystrophy in both eyes; 4 subjects, pigment degeneration of the retina.
Clinical diagnoses of patients entered into Group 2 were as follows: namely, 7 subjects had diagnosed chronic serous-plastic uveitis, and 13 subjects adenoviral conjunctivitis.
Vision was assessed using standard measurements: i.e., field of vision, visual acuity, electrophysiological indices. Ophthalmascopic examination was used to evaluate and score corneal epithelial integrity, extent of edema and infiltration of the cornea (all strata), uveitis, retinal inflammation (edema, focal and peripheral changes, exudation, hemorrhage, plasmohemorrhagia), and expansion in the vitreous body. Immune parameters in peripheral blood were also assessed. Following treatment, the trial subjects were followed for not less than 12 months.

C. albicans = type: in vivo, mice; settings: PDR
[2] = test system: peripheral blood lymphocytes; experiment: Protocol A3 Group 1A: chronic pyoderma; type: in vivo, human
Excerpt: Group 1A (a subgroup of Group 1) consisted of 32 patients (17 males and 15 females ranging from 17 to 42 years of age) with chronic pyococcal skin diseases including furunculosis, disseminated impetigo, multiple ecthymas, recurring osteofolliculitis, seborrhea adiposa, and concrete seborrhea complicated by vulgar or abscessing acne. Diseases were characterized by a chronic course or frequent relapses, and at the time of presentation for entry into the trial, all patients had received several prior courses of antibiotic therapy, none of which led to any detectable clinical improvement. Patients in Group 1A were randomly divided into two treatment groups, the first consisting of 16 patients treated with L-Glu-L-Trp according to Therapy A, below, and the second consisting of 16 patients treated (as a control) according to conventional therapeutic methods- i.e., Therapy B (below).
In treatment Protocol A, all patients received L-Glu-L-Trp in combination with antibiotics.
Therapy B (conventional therapy control): All patients in this protocol received the same antibiotics as in Therapy A and a nonspecific stimulatory agent, i.e., Thymogenin instead of L-Glu-L-Trp.
Local antibiotics were administered as follows: Ampicillin (4), oxacillin (4), Levomycetin (1), tetracycline (9), Rondomycin (2), deoxycycline (8), cephalexin (2), and Rifampicin (1).

E. coli = experiment: Survival after acute peritonitis with LD100 dose of E. coli; type: in vivo, mice
[3] = Group 1A chronic pyoderma, after L-Glu-L-Trp Therapy (n = 16)

L-Glu-L-Trp
Clinical outcome (Wound healing): accelerated wound healing
Patients with “good response” ([1]; Group 1, parabulbar): 9
Patients with “marked favorable response” ([1]; Group 1, parabulbar): 9
Patients with “good response” ([1]; Group 2, instillation): 2
Patients with “marked favorable response” ([1]; Group 2, instillation): 18
Laboratory effects ([1]; in vivo): increase in the number of circulating peripheral blood B- and T-lymphocytes
Patients with “poor response” ([1]; in vivo): 3
Subjects in whom treatment was found effective ([1]; infectious eye diseases): 66.7%
Patients with marked positive response ([1]; infectious eye diseases, parabulbar introduction): 75%
Patients with good response ([1]; instillation): 10%
Patients with marked positive response ([1]; instillation): 90%
Faster recovery than control group, adenoviral conjunctivitis ([1]; marked responses): 10 to 13 days
Rise in visual acuity, chronic serous-plastic uveitis ([1]; marked responses): > 0.1
Patients with good response ([1]; parabulbar introduction): 15%
Germ Tube (%) (C. albicans; 0.1 μg/kg ip): 35* %
Germ Tube (%) (C. albicans; 1 μg/kg ip): 34* %
Germ Tube (%) (C. albicans; 10 μg/kg ip): 35* %
Germ Tube (%) (C. albicans; 100 μg/kg ip): 26* %
Germ Tube (%) (C. albicans; 300 μg/kg ip): 37%
B-Lymphocytes [2, 3]: 0.15 ± 0 ×10^9/L
B-Lymphocytes % Normal Value [2, 3]: (31%)
B-Lymphocytes (%) [2, 3]: 7 ± 3%
Basophils (%) [2, 3]: 0.01 ± 0%
Eosinophils (%) [2, 3]: 4.2 ± 1%
Erythrocyte (sed. rate mm) [2, 3]: 13.1 ± 1 mm
Erythrocytes [2, 3]: 4.2 ± 0.1 10^12/L
IgA [2, 3]: 2.7 ± 1 g/L
IgA % Normal Value [2, 3]: (143%)
IgG [2, 3]: 16.2 ± 1 g/L
IgG % Normal Value [2, 3]: (150%)
IgM [2, 3]: 1 ± 0 g/L
IgM % Normal Value [2, 3]: (65%)
Leukocytes [2, 3]: 8.7 ± 0.5 ×10^9/L
Leukocytes % Normal Value [2, 3]: (130%)
Lymphocytes [2, 3]: 2.0 ± 0.2 ×10^9/L
Lymphocytes % Normal Value [2, 3]: (71%)
Lymphocytes, % [2, 3]: 25.9 ± 2.2%
Monocytes, % [2, 3]: 4.5 ± 1%
Neutrophils, % [2, 3]: 63.8 ± 4%
T-Lymphocytes [2, 3]: 1.15 ± 0 ×10^9/L
T-Lymphocytes % Normal Value [2, 3]: (68%)
T-Lymphocytes (%) [2, 3]: 52.3 ± 5%
T-helper [2, 3]: 0.92 ± 0.09 ×10^9/L
T-helper % Normal Value [2, 3]: (70%)
T-helper (%) [2, 3]: 45.4 ± 4.9%
T-suppressor [2, 3]: 0.51 ± 0 ×10^9/L
T-suppressor % Normal Value [2, 3]: (131%)
T-suppressor (%) [2, 3]: 28.2 ± 4%
Blast Transform., Con-A ([2]; Group 1A, L-Glu-L-Trp Therapy): 62.8 ± 8 % of PBL
Blast Transform., PHA ([2]; Group 1A, L-Glu-L-Trp Therapy): 42.7 ± 7 % of PBL
Blast Transform., Staph-A ([2]; Group 1A, L-Glu-L-Trp Therapy): 85.6 ± 9 % of PBL
Percentage Survivors (E. coli; 24 hours after injection, Glu-Trp dose 10 μg/kg (alone or + Ampicillin 1 MED)): 83.3* %
Percentage Survivors (E. coli; 24 hours after injection, Glu-Trp dose 100 μg/kg (alone or + Ampicillin 1 MED)): 77.8*† %
Percentage Survivors (E. coli; 24 hours after injection, Glu-Trp dose 1000 μg/kg (alone or + Ampicillin 1 MED)): 83.3*† %
Percentage Survivors (E. coli; 48 hours after injection, Glu-Trp dose 10 μg/kg (alone or + Ampicillin 1 MED)): 11.1%
Percentage Survivors (E. coli; 48 hours after injection, Glu-Trp dose 100 μg/kg (alone or + Ampicillin 1 MED)): 38.9* %
Percentage Survivors (E. coli; 48 hours after injection, Glu-Trp dose 1000 μg/kg (alone or + Ampicillin 1 MED)): 44.4* %
Percentage Survivors (E. coli; 72 hours after injection, Glu-Trp dose 10 μg/kg (alone or + Ampicillin 1 MED)): 11.1%
Percentage Survivors (E. coli; 72 hours after injection, Glu-Trp dose 100 μg/kg (alone or + Ampicillin 1 MED)): 38.9* %
Percentage Survivors (E. coli; 72 hours after injection, Glu-Trp dose 1000 μg/kg (alone or + Ampicillin 1 MED)): 44.4* %
